Data as given in patent publication US20260159474A1, “Aminoindane Compounds and Compositions and Methods of Their Therapeutic Use” (Solvonis Therapeutics Ireland Holdings Limited, priority 2021, published 2026).
Where “and” joins values, the source holds several entries; their conditions need not be identical. Equal entries are not always repeated.

System: extracellular serotonin (5-HT) in the nucleus accumbens (NAcc)
Assay: In vivo microdialysis in rat nucleus accumbens, serotonin
Design: species or system Sprague Dawley rats
Details: 7 mg/kg I.P.; for peak 5-HT level: baseline = 100%; for Serotonin (5-HT) level (% from baseline): rat NAcc
Method: Methods and Procedure: This study was conducted in compliance with previously described procedures to assure data integrity, adherence to GLP regulations, and standard preclinical study and surgery procedures. The in vivo microdialysis technique was applied to measure the over-time variations of DA, 5-HT, and NE extracellular (EC) concentrations in conscious, freely-moving Sprague Dawley rats. Levels of the neurotransmitters in microdialysis samples were determined using LC-MS/MS analysis. The experiment was also conducted with MDMA for comparative purposes.
As it relates to cannula implantation, the rats were anesthetized with isoflurane 4% in oxygen (2-2.5 L/min), then the isoflurane concentration 2-2.5% was maintained via a nose cone adapted to the stereotaxic apparatus. The rats were treated with meloxicam (0.2 mg/kg, subcutaneously, sc; Meloxidolor) and amoxicilline (150 mg/kg, sc, Betamox LA). The skull was then shaved and disinfected. Rats were then placed in a stereotaxic apparatus for small animals. One vertical guide cannula was inserted through a 1 mm hole drilled on the exposed skull. Coordinates, with respect to the bregma to target specific brain areas, followed indications from stereotaxic atlas of the rat brain. Specifically a guide cannula (MAB 4.12.IC, Agn Tho's AB, Lidinga, Sweden) was inserted in the NAcc (anteroposterior+1.6; lateral −1.6; dorsoventral −6.0). The guide cannula was then secured with dental cement and 2-4 screws. At the end of the surgery the animal was isolated in a single cage during recovery, for a period of at least one week, during which animal health conditions were checked twice daily and the weight recorded twice a week. Animals continued to be housed singly throughout the experiment. One day before the experiment the cannula stylet was removed and a microdialysis probe with a dialyzing length of 2 mm (MAB 4.12.2 Cu, Agn Tho's AB, Lidingo, Sweden) was inserted. Probes can be re-used 2 times for 2 experimental sessions after appropriate cleaning with fresh milliQ water.
Post-surgery, the rats were maintained in a heating chamber prior to waking up in order to avoid hypothermia that could be caused by anaesthesia. 5 mL of physiologic solution was subcutaneously administered immediately after surgery, and once/day for 2-3 days, if signs of dehydration are noticed. Meloxicam (Meloxidolor) 0.2 mg/kg was again administered subcutaneously the day after surgery as well as after 48 h after surgery together with Amoxicilline Long Acting (Betamox LA) 150 mg/kg. Health status and body weight was checked every day during the first week.
The animals were treated with the therapeutic compounds, and MDMA, or their vehicle (saline) according to a Latin square design over 5 separate experimental days (one day/week). The treatments were administered in a volume of 1 mL/kg intraperitoneally.
On the day of the experiment, each animal was taken into the laboratory in its home cage. Inlet tubing of the probe was attached to a dual quartz-lined two channel liquid swivel mounted on a low mass spring counterbalance arm which, in turn, was connected to a gas-tight syringe on a microinfusion pump. […] An equilibration period of about two hours of perfusion was allowed before collecting samples. Following the equilibration period, 4 basal samples were collected for each experimental animal followed by further 10 post-treatment samples. Samples were collected every 20 minutes (up to 3 hours and 20 minutes post-treatment) by means of a refrigerated auto-sampler (Univentor 820 Microsampler, AgnTho's, Sweden) maintained at +8 “C. At the end of all experimental sessions, 2 μL of 0.1% methylene blue solution was injected through the microdialysis probe, animals were euthanized, and their brains removed to confirm the correct probe-position.
As mentioned, the concentration of DA, 5-HT and NE in CSF samples were determined using an optimized method based on LC-MS/MS analysis. […]

SMILES | time of peak 5-HT level (rat NAcc microdialysis) | peak 5-HT level (rat NAcc microdialysis) | Serotonin (5-HT) level (% from baseline) (0 min (basal sample)) | Serotonin (5-HT) level (% from baseline) (20 min post-admin) | Serotonin (5-HT) level (% from baseline) (40 min post-admin) | Serotonin (5-HT) level (% from baseline) (60 min post-admin) | Serotonin (5-HT) level (% from baseline) (80 min post-admin) | Serotonin (5-HT) level (% from baseline) (100 min post-admin) | Serotonin (5-HT) level (% from baseline) (120 min post-admin) | Serotonin (5-HT) level (% from baseline) (140 min post-admin) | Serotonin (5-HT) level (% from baseline) (160 min post-admin) | Serotonin (5-HT) level (% from baseline) (180 min post-admin, 7 mg/kg) | Serotonin (5-HT) level (% from baseline) (200 min post-admin) | Serotonin (5-HT) level (% from baseline) (−20 min (basal sample)) | time at which 5-HT levels returned to baseline (rat NAcc microdialysis) | Serotonin (5-HT) level (% from baseline) (180 min post-admin) | peak 5-HT level (rat NAcc microdialysis, 7 mg/kg)
CNC(C)Cc1ccc2c(c1)OCO2 (stereo not shown) [MDMA] | 60 min | 2232% | 98% | 135% | 2000% | 2232% | 1780% | 1545% | 1472% | 1255% | 1083% | 980% and 972% | 871% | 102% | – | – | –
COC(=O)c1ccc2c(c1)CC(N)C2 (stereo not shown) [CMP-405, 2-aminoindane-5-methylcarboxylate] | 60 min | 289% | 97% | 114% | 353% | 289% | 182% | 157% | 140% | 115% | 113% | – | 105% | 103% | 180 min | 100% | –
COc1ccc2c(c1)CC(N)C2 (stereo not shown) [MEAI, 5-methoxy-2-aminoindane] | 40 min | – | 98% | 446% | 2365% | 2248% | 1391% | 1036% | 830% | 688% | 564% | 470% | 340% | 102% | – | – | 2365% and ~2500%
